For orientation: IC50 means the concentration at which inhibition is half-maximal.

Type in all cases: biochemical
Holding throughout (design): from tissue; host or cells: mouse brain membrane fraction
Common to all, as to settings: Table 1, mouse proteome, 30 min preincubation at 37° C.

One experiment concerns the target T1, MAGL (Mus musculus, UniProt O35678).
T1 sequence (O35678 1-303): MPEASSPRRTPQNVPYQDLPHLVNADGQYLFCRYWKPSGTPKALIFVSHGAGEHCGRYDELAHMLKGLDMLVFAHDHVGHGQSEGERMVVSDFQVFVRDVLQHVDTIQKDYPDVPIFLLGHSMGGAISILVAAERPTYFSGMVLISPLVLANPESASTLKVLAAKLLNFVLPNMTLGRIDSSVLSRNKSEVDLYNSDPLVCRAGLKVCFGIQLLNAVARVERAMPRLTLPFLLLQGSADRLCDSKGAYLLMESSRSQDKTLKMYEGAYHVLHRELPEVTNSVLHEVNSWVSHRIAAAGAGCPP
The experiment in a line: In vitro competitive activity-based protein profiling (FP-Rh), mouse MAGL. As for the experimental part: (§1) In Vitro Competitive Activity-Based Protein Profiling.
(§2) Proteomes (mouse brain membrane fraction or cell lysates) (50 μL, 1.0 mg/ml total protein concentration) were preincubated with varying concentrations of inhibitors at 37° C. After 30 min, FP-Rh (1.0 μL, 50 μM in DMSO) was added and the mixture was incubated for another 30 min at 37° C. Reactions were quenched with SDS loading buffer (50 μL—4×) and run on SDS-PAGE.

Another experiment addresses T2, FAAH (Mus musculus, UniProt O08914).
T2 sequence (O08914 1-579): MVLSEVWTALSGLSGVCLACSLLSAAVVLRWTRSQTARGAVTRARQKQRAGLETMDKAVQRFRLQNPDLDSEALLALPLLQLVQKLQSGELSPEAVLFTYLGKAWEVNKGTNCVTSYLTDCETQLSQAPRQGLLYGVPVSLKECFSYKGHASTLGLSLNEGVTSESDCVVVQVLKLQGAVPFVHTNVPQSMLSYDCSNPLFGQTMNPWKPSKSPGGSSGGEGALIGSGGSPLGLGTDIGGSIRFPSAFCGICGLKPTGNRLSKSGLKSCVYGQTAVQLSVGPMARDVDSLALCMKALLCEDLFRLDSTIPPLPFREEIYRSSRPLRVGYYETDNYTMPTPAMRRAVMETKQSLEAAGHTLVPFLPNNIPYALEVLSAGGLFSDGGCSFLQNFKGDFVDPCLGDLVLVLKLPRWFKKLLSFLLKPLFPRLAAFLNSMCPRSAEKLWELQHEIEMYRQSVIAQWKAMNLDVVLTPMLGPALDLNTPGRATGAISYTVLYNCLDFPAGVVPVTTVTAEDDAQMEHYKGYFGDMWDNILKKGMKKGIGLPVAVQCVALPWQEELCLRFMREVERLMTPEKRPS
The experiment in a line: In vitro competitive activity-based protein profiling (FP-Rh), mouse FAAH. As for the experimental part: as §1, §2

The target of a further experiment is T3, ABHD6 (Mus musculus, UniProt Q8R2Y0).
T3 sequence (Q8R2Y0 1-336): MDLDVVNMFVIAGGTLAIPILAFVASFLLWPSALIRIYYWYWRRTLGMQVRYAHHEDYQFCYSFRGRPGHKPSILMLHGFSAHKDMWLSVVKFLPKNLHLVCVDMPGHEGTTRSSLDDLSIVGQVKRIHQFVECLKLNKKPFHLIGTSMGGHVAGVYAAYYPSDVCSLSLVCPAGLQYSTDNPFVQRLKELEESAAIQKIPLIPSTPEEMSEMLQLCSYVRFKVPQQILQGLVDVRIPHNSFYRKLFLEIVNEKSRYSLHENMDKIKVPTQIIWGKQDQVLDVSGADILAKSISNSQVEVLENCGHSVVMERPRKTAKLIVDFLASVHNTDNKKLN
Put plainly: In vitro competitive activity-based protein profiling (FP-Rh), mouse ABHD6. As for the experimental part: as §1, §2

Take `O=C1CCC(=O)N1OC(=O)N1CCCCC1C(F)(F)F` (stereo not drawn) [Example 24, 2,5-Dioxopyrrolidin-1-yl 2-(trifluoromethyl)piperidine-1-carboxylate]: the IC50 on MAGL, at FAAH and on ABHD6 was > 10000 nM throughout.

For the compound `O=C1CCC(=O)N1OC(=O)N1CCCCC1CCc1ccccc1` (stereo not drawn) [Example 25, 2,5-Dioxopyrrolidin-1-yl 2-(2-phenylethyl)piperidine-1-carboxylate], the IC50 on MAGL, at FAAH and at ABHD6 was > 10000 nM in each case.

For `C#CCCC(=O)N1CCN(C(=O)ON2C(=O)CCC2=O)CC1` [Example 26, 2,5-Dioxopyrrolidin-1-yl 4-(pent-4-ynoyl)piperazine-1-carboxylate], the IC50 at MAGL, on FAAH and at ABHD6 was > 10000 nM in each case.

On to `C#CCCCCNC(=O)ON1C(=O)CCC1=O` [Example 28, 2,5-Dioxopyrrolidin-1-yl N-(hex-5-yn-1-yl)carbamate], for which the IC50 on MAGL is > 10000 nM; on FAAH, 1000 to 10000 nM; at ABHD6, 1000 to 10000 nM.

On to `O=C(ON1C(=O)CCC1=O)N1CCCC1` [Example 29, 2,5-Dioxopyrrolidin-1-yl pyrrolidine-1-carboxylate], for which the IC50 on MAGL, on FAAH and at ABHD6 was > 10000 nM in each case.

Regarding `O=C(ON1C(=O)CCC1=O)N1CCC1` [Example 30, 2,5-Dioxopyrrolidin-1-yl azetidine-1-carboxylate], the IC50 at MAGL, at FAAH and at ABHD6 was > 10000 nM in each case.

For the compound `CCCCCCCC/C=C\CCCCCCCCNC(=O)ON1C(=O)CCC1=O` [Example 31, 2,5-Dioxopyrrolidin-1-yl N-[(9Z)-octadec-9-en-1-yl]carbamate], the IC50 on MAGL, at FAAH and on ABHD6 was 1000 to 10000 nM each time.

As to `O=C(ON1C(=O)c2ccccc2C1=O)N1CCC(CCc2ccc(Cl)cc2)CC1` [Example 32, 1,3-Dioxo-2,3-dihydro-1H-isoindol-2-yl 4-[2-(4-chlorophenyl)ethyl]piperidine-1-carboxylate], the IC50 is 1000 to 10000 nM at MAGL, < 100 nM on FAAH and < 100 nM at ABHD6.

As to `O=C(ON1C(=O)c2ccccc2C1=O)N1CCN(C(c2ccc(Cl)cc2)c2ccc(Cl)cc2)CC1` [Example 33, 1,3-Dioxo-2,3-dihydro-1H-isoindol-2-yl 4-[bis(4-chlorophenyl)methyl]piperazine-1-carboxylate], the IC50 on MAGL is > 10000 nM; on FAAH, > 10000 nM; at ABHD6, 100 to 1000 nM.

As to `COc1ccc(N2CCN(C(=O)ON3C(=O)c4ccccc4C3=O)CC2)cc1` [Example 34, 1,3-Dioxo-2,3-dihydro-1H-isoindol-2-yl 4-(4-methoxyphenyl)piperazine-1-carboxylate], the IC50 on MAGL was > 10000 nM; on FAAH it was 100 to 1000 nM; at ABHD6, < 100 nM.

With `O=C(ON1C(=O)CCC1=O)N1CCOCC1` [Example 38, 2,5-Dioxopyrrolidin-1-yl morpholine-4-carboxylate], the IC50 on MAGL, at FAAH and on ABHD6 was > 10000 nM each time.

With `CC1(C)CC(=O)N(OC(=O)N2CCN(C(c3ccc(Cl)cc3)c3ccc(Cl)cc3)CC2)C1=O` [Example 42, 3,3-Dimethyl-2,5-dioxopyrrolidin-1-yl 4-(bis(4-chlorophenyl)methyl)piperazine-1-carboxylate], the IC50 was 1000 to 10000 nM at MAGL, > 10000 nM on FAAH and 1000 to 10000 nM at ABHD6.

`CCCC1CC(=O)N(OC(=O)N2CCN(C(c3ccc(Cl)cc3)c3ccc(Cl)cc3)CC2)C1=O` (stereo not drawn) [Example 43, 2,5-Dioxo-3-propylpyrrolidin-1-yl 4-(bis(4-chlorophenyl)methyl)piperazine-1-carboxylate]: the IC50 on MAGL was 100 to 1000 nM; on FAAH it was > 10000 nM; on ABHD6, 100 to 1000 nM.

For the compound `O=C(ON1C(=O)CC(c2ccccc2)C1=O)N1CCN(C(c2ccc(Cl)cc2)c2ccc(Cl)cc2)CC1` (stereo not drawn) [Example 44, 2,5-Dioxo-3-phenylpyrrolidin-1-yl 4-(bis(4-chlorophenyl)methyl)piperazine-1-carboxylate], the results for the IC50 at MAGL, at FAAH and at ABHD6 were 1000 to 10000 nM, > 10000 nM and 1000 to 10000 nM, respectively.

Regarding `O=C(ON1C(=O)C2CCCCC2C1=O)N1CCN(C(c2ccc(Cl)cc2)c2ccc(Cl)cc2)CC1` (stereo not drawn) [Example 45, 1,3-Dioxohexahydro-1H-isoindol-2(3H)-yl 4-(bis(4-chlorophenyl)methyl)piperazine-1-carboxylate], the IC50 on MAGL was 1000 to 10000 nM; at FAAH it was > 10000 nM; at ABHD6 it was 100 to 1000 nM.

As to `CC(C)C1NC(=O)N(OC(=O)N2CCN(C(c3ccc(Cl)cc3)c3ccc(Cl)cc3)CC2)C1=O` (stereo not drawn) [Example 47, 4-Isopropyl-2,5-dioxoimidazolidin-1-yl 4-(bis(4-chlorophenyl)methyl)piperazine-1-carboxylate], the values for the IC50 at MAGL, on FAAH and at ABHD6 were 100 to 1000 nM, > 10000 nM and 100 to 1000 nM, respectively.

For `O=C(ON1C(=O)CNC1=O)N1CCC(CCc2ccc(Cl)cc2)CC1` [Example 48, 2,5-Dioxoimidazolidin-1-yl 4-(4-chlorophenethyl)piperidine-1-carboxylate], the 50% inhibitory concentration (IC50) at MAGL, at FAAH and on ABHD6 was < 100 nM throughout.

Regarding `CN1CC(=O)N(OC(=O)N2CCC(CCc3ccc(Cl)cc3)CC2)C1=O` [Example 49, 3-Methyl-2,5-dioxoimidazolidin-1-yl 4-(4-chlorophenethyl)piperidine-1-carboxylate], the IC50 on MAGL was < 100 nM; on FAAH it was 100 to 1000 nM; at ABHD6, < 100 nM.

With `O=C(ON1C(=O)CN(Cc2ccccc2)C1=O)N1CCC(CCc2ccc(Cl)cc2)CC1` [Example 50, 3-Benzyl-2,5-dioxoimidazolidin-1-yl 4-(4-chlorophenethyl)piperidine-1-carboxylate], the IC50 was 100 to 1000 nM at MAGL, < 100 nM on FAAH and < 100 nM at ABHD6.

`COc1ccc(N2CCN(C(=O)ON3C(=O)CC(C)(C)C3=O)CC2)cc1` [Example 52, 3,3-Dimethyl-2,5-dioxopyrrolidin-1-yl 4-(4-methoxyphenyl)piperazine-1-carboxylate]: the IC50 is > 10000 nM at MAGL, > 10000 nM at FAAH and 100 to 1000 nM on ABHD6.

Turning to `COc1ccc(N2CCN(C(=O)ON3C(=O)C4CCCCC4C3=O)CC2)cc1` (stereo not drawn) [Example 53, 1,3-Dioxohexahydro-1H-isoindol-2(3H)-yl 4-(4-methoxyphenyl)piperazine-1-carboxylate], the IC50 is > 10000 nM on MAGL, > 10000 nM at FAAH and < 100 nM at ABHD6.

For `COc1ccc(N2CCN(C(=O)ON3C(=O)CC(c4ccccc4)C3=O)CC2)cc1` (stereo not drawn) [Example 54, 2,5-Dioxo-3-phenylpyrrolidin-1-yl 4-(4-methoxyphenyl)piperazine-1-carboxylate], the IC50 at MAGL was 1000 to 10000 nM; on FAAH, 1000 to 10000 nM; on ABHD6, < 100 nM.

Turning to `COc1ccc(N2CCN(C(=O)ON3C(=O)NC(C(C)C)C3=O)CC2)cc1` (stereo not drawn) [Example 55, 4-Isopropyl-2,5-dioxoimidazolidin-1-yl 4-(4-methoxyphenyl)piperazine-1-carboxylate], the results for the IC50 at MAGL, at FAAH and at ABHD6 were > 10000 nM, 1000 to 10000 nM and < 100 nM, respectively.

Consider `CN1CC(=O)N(OC(=O)N2CCN(C(c3ccc(Cl)cc3)c3ccc(Cl)cc3)CC2)C1=O` [Example 56, 3-Methyl-2,5-dioxoimidazolidin-1-yl 4-(bis(4-chlorophenyl)methyl)piperazine-1-carboxylate], for which the 50% inhibitory concentration (IC50) was < 100 nM at MAGL, > 10000 nM at FAAH and 100 to 1000 nM on ABHD6.

The values above are taken from US9567302B2, “Carbamate compounds and of making and using same” (Abide Therapeutics, Inc., priority 2012, dated 2017).
